{
  "source": "paper PMC6562471",
  "about": "(Cancers, 2019)",
  "key": {"A549 cells [1]": {"tested_on": "A549 cells", "test": "Cell viability (SRB assay), A549", "format": "cell-based, human", "description": "(§4) Cell viability assay was performed using SRB assay as described previously [22]."}, "phospho-Met": {"tested_on": "phospho-Met", "test": "Phospho-receptor tyrosine kinase array, A549", "format": "cell-based, human", "conditions": "A549 cells, 0.2 μM", "procedure": "Phosphorylated RTKs were measured with the Human Phospho-RTK Array Kit (ARY001B) from R&D Systems (Minneapolis, MN, USA) according to the manufacturer’s instructions."}, "A549 xenograft": {"tested_on": "A549 xenograft", "test": "A549 nude mouse xenograft model", "format": "in vivo", "procedure": "(§1) All animal experiments were followed the guidelines approved by the Seoul National University Institutional Animal Care and Use Committee (IACUC permission number SNU-170103-2-1). […]. Drug treatment started when their tumor volumes reached to 80–100 mm^3. […]. Body weight and tumor size were measured three times per week. The tumor size was calculated according to the formula V = 0.5 × length × width^2."}, "NCI-H1975 cells [2]": {"tested_on": "NCI-H1975 cells", "test": "Cell viability (SRB assay), NCI-H1975", "format": "cell-based, human", "description": "as §4"}, "c-Met": {"molecular_target": "T1, c-Met (Homo sapiens, UniProt P08581)", "T1 construct": "purchased Abnova KA0055", "T1 sequence (P08581 25-1390)": "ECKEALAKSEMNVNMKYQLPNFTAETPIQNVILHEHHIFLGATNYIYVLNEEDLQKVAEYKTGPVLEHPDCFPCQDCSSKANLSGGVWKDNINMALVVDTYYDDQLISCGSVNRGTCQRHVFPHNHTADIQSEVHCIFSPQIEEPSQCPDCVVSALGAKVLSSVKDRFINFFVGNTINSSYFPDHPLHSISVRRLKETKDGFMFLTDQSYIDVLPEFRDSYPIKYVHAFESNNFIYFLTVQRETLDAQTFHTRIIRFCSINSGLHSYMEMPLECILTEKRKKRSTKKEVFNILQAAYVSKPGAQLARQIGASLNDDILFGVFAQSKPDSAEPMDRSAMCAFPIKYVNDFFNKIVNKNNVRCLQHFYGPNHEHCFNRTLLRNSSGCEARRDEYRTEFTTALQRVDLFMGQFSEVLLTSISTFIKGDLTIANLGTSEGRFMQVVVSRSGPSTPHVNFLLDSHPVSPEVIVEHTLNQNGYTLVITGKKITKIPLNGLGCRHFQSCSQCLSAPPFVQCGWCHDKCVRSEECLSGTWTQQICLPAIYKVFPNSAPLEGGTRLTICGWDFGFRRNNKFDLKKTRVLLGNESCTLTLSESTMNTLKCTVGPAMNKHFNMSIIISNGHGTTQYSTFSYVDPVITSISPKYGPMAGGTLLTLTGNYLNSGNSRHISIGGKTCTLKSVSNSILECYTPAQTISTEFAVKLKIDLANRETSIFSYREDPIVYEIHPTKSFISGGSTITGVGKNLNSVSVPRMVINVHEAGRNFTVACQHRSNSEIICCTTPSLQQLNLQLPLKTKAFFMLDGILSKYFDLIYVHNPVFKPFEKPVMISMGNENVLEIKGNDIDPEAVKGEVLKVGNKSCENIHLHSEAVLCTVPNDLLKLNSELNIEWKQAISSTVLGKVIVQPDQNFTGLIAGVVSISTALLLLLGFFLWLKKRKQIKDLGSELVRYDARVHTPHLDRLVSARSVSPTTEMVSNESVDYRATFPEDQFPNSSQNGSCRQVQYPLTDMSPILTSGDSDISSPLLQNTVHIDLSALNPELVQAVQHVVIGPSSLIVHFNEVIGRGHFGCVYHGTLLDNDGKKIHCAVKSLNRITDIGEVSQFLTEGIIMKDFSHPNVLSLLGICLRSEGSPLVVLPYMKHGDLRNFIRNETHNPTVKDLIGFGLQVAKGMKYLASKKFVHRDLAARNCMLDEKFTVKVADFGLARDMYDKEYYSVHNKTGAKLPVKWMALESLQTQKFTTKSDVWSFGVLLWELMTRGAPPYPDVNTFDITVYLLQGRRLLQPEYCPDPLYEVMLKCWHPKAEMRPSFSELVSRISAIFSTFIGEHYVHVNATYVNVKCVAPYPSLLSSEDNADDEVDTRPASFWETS", "test": "c-Met kinase activity assay (Met Kinase Assay/Inhibitor Screening Kit)", "format": "biochemical", "conditions": "cell-free kinase activity"}, "A549 cells [3]": {"tested_on": "A549 cells", "test": "Annexin V-FITC/PI apoptosis assay, A549", "format": "cell-based, human", "conditions": "A549, 0.4 μM, 48 h; control 6.09%", "procedure": "(§2) Annexin FITC/PI assay was performed as described previously. Cell apoptosis was evaluated using Annexin V FITC/PI apoptosis detection kit (BD Biosciences, San Jose, CA, USA) according to the manufacturer’s instruction. […] Wash the cells with cold PBS buffer before staining with 5 μL of Annexin V-FITC and 5 μL of propidium iodide in the 500 μL 1× binding buffer. Finally, the stained cells were incubated for 15 min at room temperature in the dark before analyzing with FACS Calibur flow cytometer, (Becton Dickinson, San Jose, CA, USA)."}, "A549 cells [4]": {"tested_on": "A549 cells", "test": "Colony formation, A549", "format": "cell-based, human", "conditions": "A549, 72 h treatment then 10 days culture", "excerpt": "(§3) The cells were then washed once with PBS and continue to culture with full-growth medium for 10 days, change the culture medium to fresh ones every three days. Cells were stained with 0.1% crystal violet after fixing with 100% methanol."}, "NCI-H1975 xenograft": {"tested_on": "NCI-H1975 xenograft", "test": "NCI-H1975 nude mouse xenograft model", "format": "in vivo", "procedure": "as §1"}, "NCI-H1975 cells [5]": {"tested_on": "NCI-H1975 cells", "test": "Annexin V-FITC/PI apoptosis assay, NCI-H1975", "format": "cell-based, human", "conditions": "NCI-H1975, 0.4 μM, 48 h; control 4.15%", "procedure": "as §2"}, "NCI-H1975 cells [6]": {"tested_on": "NCI-H1975 cells", "test": "Colony formation, NCI-H1975", "format": "cell-based, human", "conditions": "NCI-H1975, 72 h treatment then 10 days culture", "excerpt": "as §3"}, "[7]": {"test": "Cell viability (SRB assay), normal MRC-5", "format": "cell-based", "conditions": "human, normal cell line", "description": "as §4"}, "[8]": {"test": "Pharmacokinetic study in male ICR mice", "format": "in vivo", "conditions": "mouse, plasma, po 10 mg/kg", "procedure": "The male ICR mice (25–30 g, 7–8 weeks of age) were purchased from Koatech Co. (Pyeontak, Kyonggi-do, Korea). Animals were fed with free access to standard chow diet and water. All animal use and care followed the guidelines approved by the Institutional Animal Care and Use Committee of Flow Sciences.INC. (Approval No.: NDDC PK 2018 076 01-DFX117-(4364)). Animals were acclimatized for 1 week at of 23–25 °C temperature, 40–70% relative humidity and 12 h light/12 h dark cycle before study. […] Approximately 80 µL of blood samples were collected into BD Microtainer plasma separator tubes at times 0.25, 0.5, 1.0, 2.0, 4.0, 6.0 and 8.0 h through the saphenous vein over […] post dosing. Blood samples were centrifuged at 15,000 rpm for 5 min and stored in a freezer until analysis. Protein precipitation was conducted on 15 µL of plasma samples using three volumes of acetonitrile containing carbamazepine as an internal analytical standard. After centrifugation, the supernatant was analyzed on a Nexera XR system (Shimadzu, Japan) system coupled with TSQ vantage triple quadruple (Thermo Fisher Scientific, Waltham, MA, USA) system. Chromatographic separation was performed on a Kinetex XB-C18 column (2.1 × 100 mm, 2.6 μm, particle size; Phenomenex, CA, USA) running a linear gradient of solvent A (0.1% formic acid in deionized water) and B (0.1% formic acid in acetonitrile). Detection of the analyte ions was performed in a positive MRM mode, monitoring the following precursor >product ion transitions: m/z 573.1 > 417.8. Analytical data were processed using MassHunter B04.01 (Agilent Korea, Seoul, Korea). Pharmacokinetic parameters were calculated via non-compartmental analysis of the plasma concentration-time profiles using PK Solver."}},
  "data": [
    {"smiles": "COc1ncc(-c2ccc3ncc(C(=O)NCCN4CCOCC4)n3c2)cc1NS(=O)(=O)c1ccc(F)cc1F", "note": "[DFX117, 6-(5-(2,4-difluorophenylsulfonamido)-6-methoxypyridin-3-yl)-N-(2-morpholinoethyl) imidazo[1,2-a]pyridine-3-carboxamide]", "values": [
      {"measurement": "Growth inhibitory activity compared with HS-173", "setting": "A549 cells [1]", "result": "superior to that of HS-173"},
      {"measurement": "Phospho-Met level (phospho-RTK array)", "setting": "phospho-Met", "result": "markedly suppressed"},
      {"measurement": "Overt toxicity or body weight change", "setting": "A549 xenograft; A549 xenograft, 5, 10 or 20 mg/kg orally daily for 23 days", "result": "No overt toxicity or body weight change was observed"},
      {"measurement": "Excised tumor weights on the termination day", "setting": "A549 xenograft; A549 xenograft, oral daily for 23 days", "result": "significantly inhibited"},
      {"measurement": "Growth inhibitory activity compared with HS-173", "setting": "NCI-H1975 cells [2]", "result": "superior to that of HS-173"},
      {"measurement": "IC50", "setting": "c-Met", "result": 0.0171, "unit": "µM"},
      {"measurement": "Population of apoptotic cells (Annexin V positive)", "setting": "A549 cells [3]", "result": 26.84, "unit": "%"},
      {"measurement": "Colony formation", "setting": "A549 cells [4]", "result": "significantly inhibited"},
      {"measurement": "Overt toxicity or body weight change", "setting": "NCI-H1975 xenograft; 10 or 20 mg/kg orally daily for 23 days", "result": "No overt toxicity or body weight change was observed"},
      {"measurement": "Tumor weights", "setting": "NCI-H1975 xenograft; oral daily for 23 days", "result": "significantly inhibited"},
      {"measurement": "Population of apoptotic cells (Annexin V positive)", "setting": "NCI-H1975 cells [5]", "result": 32.75, "unit": "%"},
      {"measurement": "Colony formation", "setting": "NCI-H1975 cells [6]", "result": "significantly inhibited"},
      {"measurement": "IC50", "setting": "[7]", "result": 2.89, "unit": "µM"},
      {"measurement": "AUC", "setting": "[8]", "result": 3340, "unit": "ng·h/mL"},
      {"measurement": "Cmax", "setting": "[8]", "result": 4500, "unit": "ng/mL"},
      {"measurement": "Tmax", "setting": "[8]", "result": 0.3, "unit": "h"},
      {"measurement": "half-life", "setting": "[8]", "result": 2.1, "unit": "h"},
      {"measurement": "MRT inf", "setting": "[8]; read-out: MRTinf_obs", "result": 2.2, "unit": "h"}
    ]}
  ]
}
